Experimental data published in patent publication US8192962B2, “Processes for detecting toxic substances” (Daikin Industries, Ltd., priority 2001, dated 2012).

System: Unknown protein yeast genes
Experiment: DNA chip mRNA expression in yeast, unknown protein yeast genes (Table 1)
Format: cell-based, Saccharomyces cerevisiae S288C
Procedure, shortened: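 S. cerevisiae S288C grown at 25° C. in YPD to log phase, then exposed 2 h to a toxicant at a growth-inhibiting, non-lethal concentration; untreated cells as control. Poly(A) mRNA reverse-transcribed with Cy3-dUTP or Cy5-dUTP, hybridized >12 h at 65° C. to whole-genome yeast DNA chip; value = fluorescence ratio treated/untreated.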

SMILES: CCCCC[C@H](O)CC(=O)CCc1ccc(O)c(OC)c1 [(13), gingerol]
- The level of expressed mRNA in the presence of chemical substance/The level of expressed mRNA in the absence of chemical substance (yeast gene YAL018C): 1.3
- The level of expressed mRNA in the presence of chemical substance/The level of expressed mRNA in the absence of chemical substance (yeast gene YAL049C, incubated two hours with substance): 1.6
- The level of expressed mRNA in the presence of chemical substance/The level of expressed mRNA in the absence of chemical substance (yeast gene YAR031W): 3.3
- The level of expressed mRNA in the presence of chemical substance/The level of expressed mRNA in the absence of chemical substance (yeast gene YAR047C): 1.4
- The level of expressed mRNA in the presence of chemical substance/The level of expressed mRNA in the absence of chemical substance (yeast gene YAR064W): 1.1
- The level of expressed mRNA in the presence of chemical substance/The level of expressed mRNA in the absence of chemical substance (yeast gene YBL048W): 2.7
- The level of expressed mRNA in the presence of chemical substance/The level of expressed mRNA in the absence of chemical substance (yeast gene YBL049W): 3.9
- The level of expressed mRNA in the presence of chemical substance/The level of expressed mRNA in the absence of chemical substance (yeast gene YBL107C): 2.6
- The level of expressed mRNA in the presence of chemical substance/The level of expressed mRNA in the absence of chemical substance (yeast gene YBR012C): 2.1
- The level of expressed mRNA in the presence of chemical substance/The level of expressed mRNA in the absence of chemical substance (yeast gene YBR062C): 2.8
- The level of expressed mRNA in the presence of chemical substance/The level of expressed mRNA in the absence of chemical substance (yeast gene YBR124W): 0.9
- The level of expressed mRNA in the presence of chemical substance/The level of expressed mRNA in the absence of chemical substance (yeast gene YBR287W): 3.4
- The level of expressed mRNA in the presence of chemical substance/The level of expressed mRNA in the absence of chemical substance (yeast gene YCL056C): 1.3
- The level of expressed mRNA in the presence of chemical substance/The level of expressed mRNA in the absence of chemical substance (yeast gene YCR007C): 1.5
- The level of expressed mRNA in the presence of chemical substance/The level of expressed mRNA in the absence of chemical substance (yeast gene YCR013C): 3.9
- The level of expressed mRNA in the presence of chemical substance/The level of expressed mRNA in the absence of chemical substance (yeast gene YDL027C): 3.2
- The level of expressed mRNA in the presence of chemical substance/The level of expressed mRNA in the absence of chemical substance (yeast gene YDL046W): 1.5
- The level of expressed mRNA in the presence of chemical substance/The level of expressed mRNA in the absence of chemical substance (yeast gene YDL110C): 2.7
- The level of expressed mRNA in the presence of chemical substance/The level of expressed mRNA in the absence of chemical substance (yeast gene YDL169C): 3.7
- The level of expressed mRNA in the presence of chemical substance/The level of expressed mRNA in the absence of chemical substance (yeast gene YDR090C): 0.8
- The level of expressed mRNA in the presence of chemical substance/The level of expressed mRNA in the absence of chemical substance (yeast gene YDR128W): 1.1
- The level of expressed mRNA in the presence of chemical substance/The level of expressed mRNA in the absence of chemical substance (yeast gene YDR133C): 0.1
- The level of expressed mRNA in the presence of chemical substance/The level of expressed mRNA in the absence of chemical substance (yeast gene YDR210W): 2.3
- The level of expressed mRNA in the presence of chemical substance/The level of expressed mRNA in the absence of chemical substance (yeast gene YDR250C): 1.2
- The level of expressed mRNA in the presence of chemical substance/The level of expressed mRNA in the absence of chemical substance (yeast gene YDR366C): 0.8
- The level of expressed mRNA in the presence of chemical substance/The level of expressed mRNA in the absence of chemical substance (yeast gene YDR435C): 2.5
- The level of expressed mRNA in the presence of chemical substance/The level of expressed mRNA in the absence of chemical substance (yeast gene YDR476C): 2.8
- The level of expressed mRNA in the presence of chemical substance/The level of expressed mRNA in the absence of chemical substance (yeast gene YER037W): 3.0
- The level of expressed mRNA in the presence of chemical substance/The level of expressed mRNA in the absence of chemical substance (yeast gene YFL024C): 0.9
- The level of expressed mRNA in the presence of chemical substance/The level of expressed mRNA in the absence of chemical substance (yeast gene YFR003C): 2.5
- The level of expressed mRNA in the presence of chemical substance/The level of expressed mRNA in the absence of chemical substance (yeast gene YFR026C): 1.1
- The level of expressed mRNA in the presence of chemical substance/The level of expressed mRNA in the absence of chemical substance (yeast gene YGR035C): 2.1
- The level of expressed mRNA in the presence of chemical substance/The level of expressed mRNA in the absence of chemical substance (yeast gene YGR038W): 1.2
- The level of expressed mRNA in the presence of chemical substance/The level of expressed mRNA in the absence of chemical substance (yeast gene YGR110W): 3.6
- The level of expressed mRNA in the presence of chemical substance/The level of expressed mRNA in the absence of chemical substance (yeast gene YGR139W): 0.4
- The level of expressed mRNA in the presence of chemical substance/The level of expressed mRNA in the absence of chemical substance (yeast gene YGR237C, incubated two hours with substance): 1.6
- The level of expressed mRNA in the presence of chemical substance/The level of expressed mRNA in the absence of chemical substance (yeast gene YGR277C, incubated two hours with substance): 1.6
- The level of expressed mRNA in the presence of chemical substance/The level of expressed mRNA in the absence of chemical substance (yeast gene YHL006C): 1.1
- The level of expressed mRNA in the presence of chemical substance/The level of expressed mRNA in the absence of chemical substance (yeast gene YHR209W): 2.0
- The level of expressed mRNA in the presence of chemical substance/The level of expressed mRNA in the absence of chemical substance (yeast gene YIL127C): 0.4
- The level of expressed mRNA in the presence of chemical substance/The level of expressed mRNA in the absence of chemical substance (yeast gene YJL017W): 1.5
- The level of expressed mRNA in the presence of chemical substance/The level of expressed mRNA in the absence of chemical substance (yeast gene YJL037W): 1.1
- The level of expressed mRNA in the presence of chemical substance/The level of expressed mRNA in the absence of chemical substance (yeast gene YKL097C): 0.9
- The level of expressed mRNA in the presence of chemical substance/The level of expressed mRNA in the absence of chemical substance (yeast gene YKL107W): 1.9
- The level of expressed mRNA in the presence of chemical substance/The level of expressed mRNA in the absence of chemical substance (yeast gene YKR040C): 0.6
- The level of expressed mRNA in the presence of chemical substance/The level of expressed mRNA in the absence of chemical substance (yeast gene YKR075C): 3.8
- The level of expressed mRNA in the presence of chemical substance/The level of expressed mRNA in the absence of chemical substance (yeast gene YLR064W, incubated two hours with substance): 1.6
- The level of expressed mRNA in the presence of chemical substance/The level of expressed mRNA in the absence of chemical substance (yeast gene YLR297W): 0.8
- The level of expressed mRNA in the presence of chemical substance/The level of expressed mRNA in the absence of chemical substance (yeast gene YLR338W): 1.2
- The level of expressed mRNA in the presence of chemical substance/The level of expressed mRNA in the absence of chemical substance (yeast gene YLR392C): 1.4
